Results from patent publication EP4707277A1, “NOVEL HETEROCYCLIC AMINE DERIVATIVES AND PHARMACEUTICAL COMPOSITION COMPRISING SAME” (Daewoong Pharmaceutical Co., Ltd., priority 2023, dated 2024).
Where two headings read alike, the source gives them in different places.

Columns and labels:
BTK = molecular target: T1, BTK (Homo sapiens, UniProt Q06187); assay: Inhibitory activity against BTK, ADP-Glo Kinase system (Promega); format: biochemical
T1 construct: purchased Signalchem B10-10H
Procedure, shortened: (§1)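 IC50 values were fitted from kinase reactions run for 1 h at 30°C with either 1 mM ATP or ATP at Km (10 µM for BTK, 25 µM for ITK). Reactions used 0.2 µg/µl poly(Glu4,Tyr1), recombinant human enzyme (BTK 10 ng, ITK 4 ng per reaction) in Tris pH 7.5 Mn/Mg buffer with 1% DMSO. ADP formed was read by ADP-Glo luminescence.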

ITK = molecular target: T2, ITK (Homo sapiens, UniProt Q08881); assay: Inhibitory activity against ITK, ADP-Glo Kinase system (Promega); format: biochemical
T2 construct: purchased Signalchem I13-11G-10
T2 sequence (Q08881 1-620): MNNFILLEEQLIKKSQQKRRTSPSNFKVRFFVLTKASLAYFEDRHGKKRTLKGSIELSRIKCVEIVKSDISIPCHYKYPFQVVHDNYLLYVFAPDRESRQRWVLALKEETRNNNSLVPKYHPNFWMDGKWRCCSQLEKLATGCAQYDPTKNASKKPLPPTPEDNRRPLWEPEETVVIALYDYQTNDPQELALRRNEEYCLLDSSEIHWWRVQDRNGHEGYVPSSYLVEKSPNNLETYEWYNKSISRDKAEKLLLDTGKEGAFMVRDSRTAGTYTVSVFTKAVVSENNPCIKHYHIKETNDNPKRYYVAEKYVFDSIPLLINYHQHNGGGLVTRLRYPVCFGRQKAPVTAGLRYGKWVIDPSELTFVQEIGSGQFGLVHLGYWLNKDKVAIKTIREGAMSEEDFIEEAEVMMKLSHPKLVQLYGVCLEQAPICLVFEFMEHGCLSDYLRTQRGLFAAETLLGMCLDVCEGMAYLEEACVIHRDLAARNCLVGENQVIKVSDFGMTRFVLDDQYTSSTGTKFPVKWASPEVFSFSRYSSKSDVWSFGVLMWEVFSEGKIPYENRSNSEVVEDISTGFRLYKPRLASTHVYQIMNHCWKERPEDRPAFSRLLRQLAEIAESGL
Procedure, shortened: as §1

[1] = 1mM ATP, read-out: BTK IC50(nM) 1mM ATP
[2] = 1mM ATP, read-out: ITK IC50(nM) 1mM ATP
[3] = Km ATP (BTK: 10 uM), read-out: BTK IC50(nM) Km ATP
[4] = Km ATP (ITK: 25uM), read-out: ITK IC50(nM) Km ATP

T1 sequence (Q06187 whole entry): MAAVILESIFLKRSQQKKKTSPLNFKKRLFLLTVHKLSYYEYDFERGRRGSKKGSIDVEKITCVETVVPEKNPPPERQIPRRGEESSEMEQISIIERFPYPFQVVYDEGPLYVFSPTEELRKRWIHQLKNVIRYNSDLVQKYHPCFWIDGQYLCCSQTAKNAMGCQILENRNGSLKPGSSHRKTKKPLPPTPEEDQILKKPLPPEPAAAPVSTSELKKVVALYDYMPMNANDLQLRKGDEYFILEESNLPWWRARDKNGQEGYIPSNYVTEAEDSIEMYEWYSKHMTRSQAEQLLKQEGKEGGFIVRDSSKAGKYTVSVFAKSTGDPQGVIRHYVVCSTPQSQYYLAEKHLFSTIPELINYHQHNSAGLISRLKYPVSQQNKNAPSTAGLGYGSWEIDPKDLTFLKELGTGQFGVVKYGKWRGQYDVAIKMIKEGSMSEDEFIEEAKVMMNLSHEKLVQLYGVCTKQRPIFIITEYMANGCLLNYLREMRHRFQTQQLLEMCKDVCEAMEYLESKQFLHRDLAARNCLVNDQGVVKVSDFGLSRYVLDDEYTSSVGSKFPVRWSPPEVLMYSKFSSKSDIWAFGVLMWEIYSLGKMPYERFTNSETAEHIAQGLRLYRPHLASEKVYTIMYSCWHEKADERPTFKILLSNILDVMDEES

Row | Structure (SMILES) | IC50 (BTK; [1]) [nM] | IC50 (ITK; [2]) [nM] | IC50 (BTK; [3]) [nM] | IC50 (ITK; [4]) [nM]
1 | C=CC(=O)N1CC=C(c2nc(Nc3nc(C)cs3)cc3c2ccn3C(C)C)CC1 [Example 42, 1-(4-(1-isopropyl-6-((4-methylthiazol-2-yl)amino)-1H-pyrrolo[3,2-c]pyridin-4-yl)-3,6-dihydropyridin-1(2H)-yl)prop-2-en-1-one] | – | – | > 500 | > 500
2 | C=CC(=O)N1CC[C@H](Oc2nc(Nc3ncc(C)s3)cc3c2ccn3CCCC)C1 [Example 124, (S)-1-(3-((1-butyl-6-((5-methylthiazol-2-yl)amino)-1H-pyrrolo[3,2-c]pyridin-4-yl)oxy)pyrrolidin-1-yl)prop-2-en-1-one] | – | – | ≤ 20 | ≤ 20
3 | C=CC(=O)N1CC[C@H](Oc2nc(Nc3cccn(C)c3=O)cc3c2ccn3C(C)C)C1 [Example 198, (S)-3-((4-((1-acryloylpyrrolidin-3-yl)oxy)-1-isopropyl-1H-pyrrolo[3,2-c]pyridin-6-yl)amino)-1-methylpyridin-2(1H)-one] | > 500 | > 500 | – | –
4 | C=CC(=O)Nc1cccc(-c2nc(Nc3ncc(C)s3)cc3c2ccn3C)c1 [Example 50, N-(3-(1-methyl-6-((5-methylthiazol-2-yl)amino)-1H-pyrrolo[3,2-c]pyridin-4-yl)phenyl)acrylamide] | – | – | ≤ 20 | 20 to 100
5 | C=CC(=O)N1C[C@H](F)[C@H](Oc2nc(Nc3cccn(C)c3=O)cc3c2ccn3CC(C)C)C1 [Example 199, 3-((4-(((3R,4S)-1-acryloyl-4-fluoropyrrolidin-3-yl)oxy)-1-isobutyl-1H-pyrrolo[3,2-c]pyridin-6-yl)amino)-1-methylpyridin-2(1H)-one] | > 500 | > 500 | – | –
6 | Cc1cnc(Nc2cc3c(ccn3CC(C)C)c(O[C@H]3CCN(C(=O)/C=C/CN(C)C)C3)n2)s1 [Example 227, (S,E)-4-(dimethylamino)-1-(3-((1-isobutyl-6-((5-methylthiazol-2-yl)amino)-1H-pyrrolo[3,2-c]pyridin-4-yl)oxy)pyrrolidin-1-yl)but-2-en-1-one] | > 500 | > 500 | – | –
7 | C=CC(=O)N1CC[C@H](Oc2nc(Nc3ncc(C)s3)cc3c2ccn3CC)C1 [Example 125, (S)-1-(3-((1-ethyl-6-((5-methylthiazol-2-yl)amino)-1H-pyrrolo[3,2-c]pyridin-4-yl)oxy)pyrrolidin-1-yl)prop-2-en-1-one] | – | – | ≤ 20 | ≤ 20
8 | C=CC(=O)N1CCCCC12CC(Oc1nc(Nc3ncc(C)s3)cc3c1ccn3CC(C)C)C2 (centres unmarked) [Example 203, 1-(2-((1-isobutyl-6-((5-methylthiazol-2-yl)amino)-1H-pyrrolo[3,2-c]pyridin-4-yl)oxy)-5-azaspiro[3.5]nonan-5-yl)prop-2-en-1-one] | > 500 | > 500 | – | –
9 | C=CC(=O)N1CC=C(c2nc(Nc3ncc(C)s3)cc3c2ccn3Cc2ccccc2)CC1 [Example 15, 1-(4-(1-benzyl-6-((5-methylthiazol-2-yl)amino)-1H-pyrrolo[3,2-c]pyridin-4-yl)-3,6-dihydropyridin-1(2H)-yl)prop-2-en-1-one] | – | – | ≤ 20 | ≤ 20
10 | C=CC(=O)N1CC(C)(Oc2nc(Nc3ncc(C)s3)cc3c2ccn3CC)C1 [Example 155, 1-(3-((1-ethyl-6-((5-methylthiazol-2-yl)amino)-1H-pyrrolo[3,2-c]pyridin-4-yl)oxy)-3-methylazetidin-1-yl)prop-2-en-1-one] | ≤ 20 | 20 to 100 | – | –
11 | C=CC(=O)Nc1cc(-c2nc(Nc3ncc(C)s3)cc3c2ccn3CC(F)F)ccc1C [Example 74, N-(5-(1-(2,2-difluoroethyl)-6-((5-methylthiazol-2-yl)amino)-1H-pyrrolo[3,2-c]pyridin-4-yl)-2-methylphenyl)acrylamide] | – | – | ≤ 20 | ≤ 20

The next lines start with the values.

Row | IC50 (BTK; [1]) [nM] | IC50 (ITK; [2]) [nM] | IC50 (BTK; [3]) [nM] | IC50 (ITK; [4]) [nM] | Structure (SMILES)
12 | ≤ 20 | ≤ 20 | – | – | C=CC(=O)N1C[C@H](F)[C@H](Oc2nc(Nc3ncc(C)s3)cc3c2ccn3CC)C1 [Example 152, 1-((3R,4S)-3-((1-ethyl-6-((5-methylthiazol-2-yl)amino)-1H-pyrrolo[3,2-c]pyridin-4-yl)oxy)-4-fluoropyrrolidin-1-yl)prop-2-en-1-one]
13 | ≤ 20 | ≤ 20 | – | – | C=CC(=O)N1C[C@@H](Oc2nc(Nc3ncc(C)s3)cc3c2ccn3C2CCCC2)C[C@H]1C [Example 100, 1-((2R,4S)-4-((1-cyclopentyl-6-((5-methylthiazol-2-yl)amino)-1H-pyrrolo[3,2-c]pyridin-4-yl)oxy)-2-methylpyrrolidin-1-yl)prop-2-en-1-one]
14 | ≤ 20 | 20 to 100 | – | – | C=CC(=O)N1CCC[C@H](Oc2nc(Nc3ncc(C)s3)cc3c2ccn3CC(C)CC)C1 (stereo partly drawn) [Example 172, 1-((3S)-3-((1-(2-methylbutyl)-6-((5-methylthiazol-2-yl)amino)-1H-pyrrolo[3,2-c]pyridin-4-yl)oxy)piperidin-1-yl)prop-2-en-1-one]
15 | ≤ 20 | ≤ 20 | – | – | C=CC(=O)N1C[C@H](F)[C@H](Oc2nc(Nc3ncc(C)s3)cc3c2ccn3CCF)C1 [Example 189, 1-((3S,4R)-3-fluoro-4-((1-(2-fluoroethyl)-6-((5-methylthiazol-2-yl)amino)-1H-pyrrolo[3,2-c]pyridin-4-yl)oxy)pyrrolidin-1-yl)prop-2-en-1-one]
16 | ≤ 20 | 20 to 100 | – | – | C=CC(=O)Nc1ccc(F)c(-c2nc(Nc3ncc(C)s3)cc3c2ccn3[C@@H](C)CC)c1 [Example 68, (S)-N-(3-(1-(sec-butyl)-6-((5-methylthiazol-2-yl)amino)-1H-pyrrolo[3,2-c]pyridin-4-yl)-4-fluorophenyl)acrylamide]
17 | ≤ 20 | ≤ 20 | – | – | C=CC(=O)N1CC[C@H](Oc2nc(Nc3ncc(C)s3)cc3c2ccn3[C@H](C)C(F)(F)F)C1 [Example 213, 1-((S)-3-((6-((5-methylthiazol-2-yl)amino)-1-((R)-1,1,1-trifluoropropan-2-yl)-1H-pyrrolo[3,2-c]pyridin-4-yl)oxy)pyrrolidin-1-yl)prop-2-en-1-one]
18 | ≤ 20 | 100 to 500 | – | – | C=CC(=O)N1CCC[C@H](COc2nc(Nc3ncc(C)s3)cc3c2ccn3CC(C)C)C1 [Example 215, (S)-1-(3-(((1-isobutyl-6-((5-methylthiazol-2-yl)amino)-1H-pyrrolo[3,2-c]pyridin-4-yl)oxy)methyl)piperidin-1-yl)prop-2-en-1-one]
19 | ≤ 20 | ≤ 20 | – | – | C=CC(=O)N1CC[C@H](Oc2nc(Nc3ncc(C)s3)cc3c2ccn3CC(F)(F)F)C1 [Example 205, (S)-1-(3-((6-((5-methylthiazol-2-yl)amino)-1-(2,2,2-trifluoroethyl)-1H-pyrrolo[3,2-c]pyridin-4-yl)oxy)pyrrolidin-1-yl)prop-2-en-1-one]
20 | ≤ 20 | 20 to 100 | – | – | C=CC(=O)N1CCC[C@H](Oc2nc(Nc3ncc(C)s3)cc3c2ccn3C2CCCC2)C1 [Example 151, (S)-1-(3-((1-cyclopentyl-6-((5-methylthiazol-2-yl)amino)-1H-pyrrolo[3,2-c]pyridin-4-yl)oxy)piperidin-1-yl)prop-2-en-1-one]
21 | ≤ 20 | ≤ 20 | – | – | C=CC(=O)N1C[C@H](F)[C@H](Oc2nc(Nc3ncc(C)s3)cc3c2ccn3C2CCCC2)C1 [Example 109, 1-((3R,4S)-3-((1-cyclopentyl-6-((5-methylthiazol-2-yl)amino)-1H-pyrrolo[3,2-c]pyridin-4-yl)oxy)-4-fluoropyrrolidin-1-yl)prop-2-en-1-one]
22 | ≤ 20 | 20 to 100 | – | – | C=CC(=O)N1CCC[C@H](Oc2nc(Nc3ncc(C)s3)cc3c2ccn3CC2CCCC2)C1 [Example 169, (S)-1-(3-((1-(cyclopentylmethyl)-6-((5-methylthiazol-2-yl)amino)-1H-pyrrolo[3,2-c]pyridin-4-yl)oxy)piperidin-1-yl)prop-2-en-1-one]
23 | ≤ 20 | ≤ 20 | – | – | C=CC(=O)N1C[C@H](F)[C@H](Oc2nc(Nc3ncc(C)s3)cc3c2ccn3CC(F)(F)F)C1 [Example 211, 1-((3S,4R)-3-fluoro-4-((6-((5-methylthiazol-2-yl)amino)-1-(2,2,2-trifluoroethyl)-1H-pyrrolo[3,2-c]pyridin-4-yl)oxy)pyrrolidin-1-yl)prop-2-en-1-one]
24 | ≤ 20 | ≤ 20 | – | – | C=CC(=O)N1C[C@@H](F)[C@H](Oc2nc(Nc3ncc(C)s3)cc3c2ccn3[C@@H](C)CC)C1 [Example 113, 1-((3R,4R)-3-((1-((S)-sec-butyl)-6-((5-methylthiazol-2-yl)amino)-1H-pyrrolo[3,2-c]pyridin-4-yl)oxy)-4-fluoropyrrolidin-1-yl)prop-2-en-1-one]
25 | ≤ 20 | 20 to 100 | – | – | C=CC(=O)N1CC=C(c2nc(Nc3cc(F)ccn3)cc3c2ccn3C(C)C)CC1 [Example 47, 1-(4-(6-((4-fluoropyridin-2-yl)amino)-1-isopropyl-1H-pyrrolo[3,2-c]pyridin-4-yl)-3,6-dihydropyridin-1(2H)-yl)prop-2-en-1-one]
